Reference: US9771334B2, “Triketone compound and preparation method and use thereof” (SHANDONG CYNDA CHEMICAL CO., LTD., priority 2013, dated 2017)

Assays:
Assay type in all cases: in vivo
[1] = system: abutilon theophrasti; assay: Herbicidal activity, pot culture method (primary and secondary screening test); details: sprayed at 3-leaf stage; for inhibition ratio, Abutilon theophrasti: investigated 15 days later; for herbicidal activity inhibition ratio (%), Abutilon theophrasti: primary screening, pot culture, 150 g/ha, result 15 days later
Method in brief: (§1)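 Weeds were sown in 1:2 garden soil:seedling matrix and sprayed at the 3-leaf stage by automatic spray tower. Compounds were dissolved in DMF and diluted in water to 0.2 g/L, dosed at 150 g/ha; the secondary screen used a reduced dose. Inhibition ratio (%) was assessed after 15 days in the greenhouse.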

[2] = system: amaranthus retroflexus; assay: as above; details: sprayed at 3-leaf stage; for inhibition ratio, Amaranthus retroflexus: investigated 15 days later; for herbicidal activity inhibition ratio (%), Amaranthus retroflexus: primary screening, pot culture, 150 g/ha, result 15 days later
Method in brief: as §1

[3] = system: digitaria sanguinalis; assay: as above; details: sprayed at 3-leaf stage; for inhibition ratio, Digitaria sanguinalis: investigated 15 days later; for herbicidal activity inhibition ratio (%), Digitaria sanguinalis: primary screening, pot culture, 150 g/ha, result 15 days later
Method in brief: as §1

[4] = system: echinochloa crusgalli; assay: as above; details: sprayed at 3-leaf stage; for inhibition ratio, Echinochloa crusgalli: investigated 15 days later; for herbicidal activity inhibition ratio (%), Echinochloa crusgalli: primary screening, pot culture, 150 g/ha, result 15 days later
Method in brief: as §1

[5] = system: eclipta prostrata; assay: as above; details: sprayed at 3-leaf stage; for inhibition ratio, Eclipta prostrata: investigated 15 days later; for herbicidal activity inhibition ratio (%), Eclipta prostrata: primary screening, pot culture, 150 g/ha, result 15 days later
Method in brief: as §1

[6] = system: setaria viridis; assay: as above; details: sprayed at 3-leaf stage; for inhibition ratio, Setaria viridis: investigated 15 days later; for herbicidal activity inhibition ratio (%), Setaria viridis: primary screening, pot culture, 150 g/ha, result 15 days later
Method in brief: as §1

[7] = system: maize; assay: Crop safety test (pot culture method); details: for inhibition ratio, Maize (crop safety): plants with about 4-5 leaves, investigated 15 days later
Text: (§2) This test example is for describing crop safety of the compound with a structure shown in Formula (1). Crop safety test method (pot culture method): The test targets are wheat and maize. Take flowerpots with an inner diameter of 12 cm, put composite soil (vegetable garden soil:seedling matrix=1:2, v/v) into them till ¾ of flowerpot height, directly sow the crop seeds (budding rate>85%), cover them with 0.2 cm thick soil, and keep the plants for future use when they grow to have about 4-5 leaves. Each compound is dissolved in N,N-dimethylformamide at doses of 75 g/ha or 150 g/ha and diluted with distilled water containing 0.1% tween-80 emulsifier to form 0.1 g/L (75 g/ha) solution and 0.2 g/L (150 g/ha) solution respectively. The solutions are sprayed through an automatic spray tower. After the solutions on weed leaves are dried in the air, the flowerpots are moved into a greenhouse for cultivation. The result is investigated 15 days later.

[8] = system: wheat; assay: Crop safety test (pot culture method); details: plants with about 4-5 leaves, investigated 15 days later
Text: as §2

Row | Structure (SMILES) | inhibition ratio, Abutilon theophrasti ([1]; dose 37.5 g/ha) [%] | inhibition ratio, Abutilon theophrasti ([1]; dose 75 g/ha) [%] | herbicidal activity inhibition ratio (%), Abutilon theophrasti [1] [%] | inhibition ratio, Amaranthus retroflexus ([2]; dose 37.5 g/ha) [%] | inhibition ratio, Amaranthus retroflexus ([2]; dose 75 g/ha) [%] | herbicidal activity inhibition ratio (%), Amaranthus retroflexus [2] [%] | inhibition ratio, Digitaria sanguinalis ([3]; dose 37.5 g/ha) [%] | inhibition ratio, Digitaria sanguinalis ([3]; dose 75 g/ha) [%] | herbicidal activity inhibition ratio (%), Digitaria sanguinalis [3] [%] | inhibition ratio, Echinochloa crusgalli ([4]; dose 37.5 g/ha) [%] | inhibition ratio, Echinochloa crusgalli ([4]; dose 75 g/ha) [%] | herbicidal activity inhibition ratio (%), Echinochloa crusgalli [4] [%] | inhibition ratio, Eclipta prostrata ([5]; dose 37.5 g/ha) [%] | inhibition ratio, Eclipta prostrata ([5]; dose 75 g/ha) [%] | herbicidal activity inhibition ratio (%), Eclipta prostrata [5] [%] | inhibition ratio, Setaria viridis ([6]; dose 37.5 g/ha) [%] | inhibition ratio, Setaria viridis ([6]; dose 75 g/ha) [%] | herbicidal activity inhibition ratio (%), Setaria viridis [6] [%] | inhibition ratio, Maize (crop safety) ([7]; dose 75 g/ha) [%] | inhibition ratio, Maize (crop safety) ([7]; dose 150 g/ha) [%] | further results
1 | Cn1c(=O)n(-c2ccccc2Cl)c(=O)c2cc(C(=O)C3=C(O)CCCC3=O)ccc21 [Compound 5] | 60 | 70 | 85 | 60 | 75 | 80 | 40 | 90 | 100 | 60 | 90 | 80 | 30 | 40 | 80 | 60 | 90 | 100 | 0 | 15 | inhibition ratio, Wheat (crop safety) ([8]; dose 75 g/ha): 0%; inhibition ratio, Wheat (crop safety) ([8]; dose 150 g/ha): 0%
2 | Cn1c(=O)n(-c2ccccc2Cl)c(=O)c2cc(C(=O)C3=C(O)CC(C)(C)CC3=O)ccc21 [Compound 6] | 70 | 70 | 100 | 70 | 75 | 80 | 60 | 70 | 75 | 70 | 75 | 80 | 70 | 70 | 85 | 60 | 60 | 90 | 0 | 15 | inhibition ratio, Wheat (crop safety) ([8]; dose 75 g/ha): 0%; inhibition ratio, Wheat (crop safety) ([8]; dose 150 g/ha): 0%
3 | Cc1ccccc1-n1c(=O)c2cc(C(=O)C3=C(O)CCCC3=O)ccc2n(C)c1=O [Compound 20] | 30 | 85 | 100 | 50 | 60 | 100 | 40 | 70 | 100 | 50 | 60 | 100 | 50 | 50 | 95 | 50 | 70 | 100 | 0 | 15 | inhibition ratio, Wheat (crop safety) ([8]; dose 75 g/ha): 0%; inhibition ratio, Wheat (crop safety) ([8]; dose 150 g/ha): 0%
4 | Cc1ccccc1-n1c(=O)c2cc(C(=O)C3=C(O)CC(C)(C)CC3=O)ccc2n(C)c1=O [Compound 21] | 70 | 100 | 85 | 80 | 90 | 100 | 70 | 75 | 85 | 70 | 75 | 85 | 40 | 50 | 95 | 70 | 75 | 100 | 0 | 15 | inhibition ratio, Wheat (crop safety) ([8]; dose 75 g/ha): 0%; inhibition ratio, Wheat (crop safety) ([8]; dose 150 g/ha): 0%
5 | Cn1c(=O)n(-c2cccc(Br)c2)c(=O)c2cc(C(=O)C3=C(O)CCCC3=O)ccc21 [Compound 23] | 100 | 100 | 85 | 100 | 100 | 95 | 20 | 65 | 30 | 20 | 20 | 85 | 100 | 100 | 50 | 30 | 50 | 45 | 0 | 0 | safety to maize fields (in words) ([7]; dose 150 g/ha): highly safe; inhibition ratio, Wheat (crop safety) ([8]; dose 75 g/ha): 0%; inhibition ratio, Wheat (crop safety) ([8]; dose 150 g/ha): 5%
6 | Cc1cccc(C)c1-n1c(=O)c2cc(C(=O)C3=C(O)CCCC3=O)ccc2n(C)c1=O [Compound 34] | 30 | 50 | 90 | 100 | 100 | 100 | 55 | 75 | 83 | 65 | 80 | 90 | 30 | 50 | 80 | 70 | 78 | 80 | 0 | 0 | safety to maize fields (in words) ([7]; dose 150 g/ha): highly safe; inhibition ratio, Wheat (crop safety) ([8]; dose 75 g/ha): 0%; inhibition ratio, Wheat (crop safety) ([8]; dose 150 g/ha): 5%
7 | CCc1ccccc1-n1c(=O)c2cc(C(=O)C3=C(O)CCCC3=O)ccc2n(C)c1=O [Compound 47] | 60 | 90 | 100 | 90 | 95 | 100 | 80 | 85 | 95 | 80 | 88 | 85 | 20 | 30 | 85 | 88 | 90 | 83 | 0 | 0 | safety to maize fields (in words) ([7]; dose 150 g/ha): highly safe; inhibition ratio, Wheat (crop safety) ([8]; dose 75 g/ha): 0%; inhibition ratio, Wheat (crop safety) ([8]; dose 150 g/ha): 0%
8 | CC(C)c1ccccc1-n1c(=O)c2cc(C(=O)C3=C(O)CCCC3=O)ccc2n(C)c1=O [Compound 97] |  |  | 98 |  |  | 100 |  |  | 50 |  |  | 55 |  |  | 90 |  |  | 50 |  |  | 
9 | Cc1cccc(C)c1-n1c(=O)c2cc(C(=O)C3=C(O)CC(C)(C)CC3=O)ccc2n(C)c1=O [Compound 98] |  |  | 100 |  |  | 100 |  |  | 50 |  |  | 85 |  |  | 88 |  |  | 80 |  |  | 
